Source: patent US8481600B2, “Formulation of aspirin that is stable and showing minimal hydrolysis for parenteral administration for the treatment of cardiovascular and other disease states” (Academic Pharmaceuticals, Inc., priority 2007, dated 2013)
Values joined by “and” are separate entries in the source; they are usually repeats but may differ in a detail not shown here. Identical values can stand only once.

How the values were obtained:
[1] = Solution compatibility: NNDMA solution of ASA diluted with diluents, HPLC; assay type: physicochemical; settings: for Assay of Compounds: Aspirin / Assay of Compounds: Salicylic Acid: ASA in NNDMA diluted with D5W, RT
Protocol: In another series of experiments, 1 ml of the solution containing only NNDMA (Table 3) was diluted with 100 ml of diluents such as 1. distilled H2O, 2. Ringers lactate solution, 3. D5W and 4. normal saline and then the pH of these solutions were adjusted to 6.5 with 1 N NaOH. […] After 12 hours of storage, however, the hydrolysis of ASA was observed (up to 5% within 24 hours). […] One skilled in the art will recognize that modifications may be made in the persent invention without deviating from the spirit or scope of this invention which is illustrated further by the specific examples of dissolution attempts described herein and these examples are not to be construed as limiting the scope of this invention.
(§1) A 10 μl solution of this formulation is tested using the following HPLC procedure for analysis. A constant-flow pump, Thermo-Finnigan Spectra-System P2000 was used to deliver eluent solvent at a rate of 1 ml/min to a column, Luna, 5μ, C8(2), 100 A, […] (Phenomenex, Calif.). The eluent solvent system was NaH2PO4 (0.025 M): Na2HPO4 (0.25 M): MeOH (25:25:50 V/V) pH adjusted to 3.2 with either phosphoric acid or concentrated HCL. Methanolic solutions of aspirin and salicylic acid 10 μl (concentration of 1 mg/ml) were injected onto the column. The eluted compounds were detected using a Spectra 200 programmable UV wavelength detector and Thermo-Finnigan Chrome Jet integrator. The wavelength of detector was either […]. Under these conditions, retention times for aspirin and hydrolysis product, salicylic acid was approximately 1.75 minutes and 3.34 minutes respectively. […]

[2] = 25° C.; cited from earlier work
[3] = HPLC analysis of ASA solutions for hydrolysis to salicylic acid (stability on storage); assay type: physicochemical
Protocol: as §1

[4] = 1 ml NNDMA solution diluted in D5W, after 12 hours (FIG. 6)
[5] = a. H2O (2.0 ml), 1-Propanol (0.5 ml), Tween 20 (0.5 ml), within 1 hr
[6] = aspirin dissolved in water (2 ml), upon mixing (FIG. 1)
[7] = glycerin (1 ml), 1-propanol (3 ml), Tween 80 (0.2 ml), upon mixing (FIG. 2)

SMILES: CC(=O)Oc1ccccc1C(=O)O [ASA, aspirin]
- HPLC peak 2 [1, 4]: 0.3%
- HPLC peak 3 [1, 4]: 0.4%
- aspirin purity, HPLC peak 1 ([1]; 1 ml NNDMA solution diluted in distilled water and glucose (D5W), after 12 hours (FIG. 6)): 95% and 94.8%
- appearance of diluted solutions ([1]; 1 ml NNDMA solution in 100 ml distilled H2O, Ringers lactate, D5W or normal saline, pH 6.5, after several days): remained clear
- hydrolysis of ASA ([1]; 1 ml NNDMA solution in 100 ml distilled H2O, Ringers lactate, D5W or normal saline, pH 6.5, up to 12 hours of storage): < 1%
- hydrolysis of ASA ([1]; 1 ml NNDMA solution in 100 ml distilled H2O, Ringers lactate, D5W or normal saline, pH 6.5, within 24 hours): up to 5%
- Assay of Compounds: Aspirin ([1]; up to 12 hours): >99%
- Assay of Compounds: Salicylic Acid ([1]; up to 12 hours): <1%
- Assay of Compounds: Aspirin ([1]; up to 24 hours): 94.7-95.3%
- Assay of Compounds: Salicylic Acid ([1]; up to 24 hours): Max. ~6%
- solubility in water [2]: poor solubility
- Purity of ASA in solution ([3]; 1. N,N-Dimethylacetamide (NNDMA)): >99%
- Purity of ASA in solution ([3]; 2. NNDMA, Glycerol (0.1 in 10 ml), Tween 20 (0.1 in 10 ml)): Purity >99%
- Purity of ASA in solution ([3]; 3. NNDMA, Glycerol (0.1 in 10 ml), Tween 40 (0.1 in 10 ml)): Purity >99%
- Purity of ASA in solution ([3]; 4. NNDMA, Glycerol (0.1 in 10 ml), Tween 60 (0.1 in 10 ml)): Purity >99%
- Purity of ASA in solution ([3]; 5. NNDMA, Glycerol (0.1 in 10 ml), Tween 80 (0.1 in 10 ml)): Purity >99%
- Purity of ASA in solution ([3]; 6. NNDMA, Glycerol (0.1 in 10 ml)): Purity >99%
- Purity of ASA in solution ([3]; 7. NNDMA, Glycerol (0.1 in 10 ml), DMSO (1-2%)): Purity >99%
- Purity of ASA in solution ([3]; 8. NNDMA, DMSO (1.2%)): Purity >99%
- Aspirin (HPLC purity) ([3]; ASA in NNDMA, 40° C., 6 months): 97.5% and 97.9%-98.6%
- Aspirin (HPLC purity) ([3]; ASA in NNDMA, 40° C., 6 months, listed as aspirin): 98%
- Aspirin (HPLC purity) ([3]; ASA in NNDMA, RT, 6 months): 99.4%
- Salicylic Acid / hydrolysis product ([3]; ASA in NNDMA, RT, 6 months): 0.3%
- stability of solution of ASA in NNDMA ([3]; Example 1: 1.0 gm of aspirin in 2 mL NNDMA): stable and resists hydrolysis
- solution stability on pH adjustment ([3]; NNDMA solutions of Table 3, pH adjusted in the range of 1.5-6.0): without changing solution stability
- aspirin purity (HPLC) ([3]; NNDMA, glycerol and Tween 20, RT, 6 months (FIG. 5)): 99%
- HPLC Results: aspirin [3, 5]: ~95% aspirin
- HPLC Results: salicylic acid [3, 5]: ~5%
- amount of aspirin present ([3]; all 8 NNDMA solutions of Table 3, room temperature, 6 months): greater than 98%
- hydrolysis on storage ([3]; all 8 NNDMA solutions of Table 3, stored at room temperature): no significant amount of hydrolysis could be detected
- aspirin, HPLC peak 1 area [3, 6]: 95.4%
- hydrolysis product, HPLC peak 2 [3, 6]: 4.9%
- HPLC Results: salicylic acid ([3]; b. H2O (2.0 ml), 1-Propanol (0.5 ml), Tween 40, within 1 hr): ~5%
- HPLC Results: salicylic acid ([3]; c. H2O (2.0 ml), 1-Propanol (0.5 ml), Tween 60, within 1 hr): ~5%
- HPLC Results: salicylic acid ([3]; d. H2O (2.0 ml), 1-Propanol (0.5 ml), Tween 80, within 1 hr): ~5%
- HPLC Results: salicylic acid ([3]; e. H2O (2.0 ml), 1-Propanol (0.5 ml), PEG 300, within 1 hr): ~5%
- HPLC Results: salicylic acid ([3]; f. H2O (2.0 ml), 1-Propanol (0.5 ml), PEG 400, within 1 hr): ~5%
- HPLC Results: salicylic acid ([3]; g. H2O (2.0 ml), 1-Propanol (0.5 ml), PEG 600, within 1 hr): ~5%
- aspirin, HPLC peak 1 [3, 7]: 94.3%
- hydrolysis product, HPLC peak 2 [3, 7]: 5.7%
- HPLC Results: salicylic acid ([3]; h. H2O (2.0 ml), 1-Propanol (0.5 ml), Glycerol, within 1 hr): ~5%
- HPLC Results: salicylic acid ([3]; i. H2O (2 ml), +DMSO (1-2%), Tween 20, within 1 hr): ~5%
- HPLC Results: salicylic acid ([3]; j. H2O (2 ml), +DMSO (1-2%), Tween 40, within 1 hr): ~5%
- HPLC Results: salicylic acid ([3]; k. H2O (2 ml), +DMSO (1-2%), Tween 60, within 1 hr): ~5%
- HPLC Results: salicylic acid ([3]; l. H2O (2 ml), +DMSO (1-2%), Tween 80, within 1 hr): ~5%
- HPLC Results: salicylic acid ([3]; m. Glycerine (1 ml), 1-Propanol (3 ml), Tween 80 (0.2 ml), within 1 hr): ~5%
- HPLC Results: salicylic acid ([3]; n. Glycerine (1 ml), 1,2 propanediol (3 ml), Tween 80 (0.2 ml), within 1 hr): ~5%
- HPLC Results: salicylic acid ([3]; o. Glycerine (1 ml), PEG 300 (3 ml), Tween 80 (0.2 ml), within 1 hr): ~5%
- HPLC Results: salicylic acid ([3]; p. Glycerine (1 ml), PEG 400 (3 ml), Tween 80 (0.2 ml), within 1 hr): ~5%
- HPLC Results: salicylic acid ([3]; q. Glycerine (1 ml), PEG 600 (3 ml), Tween 80 (0.2 ml), within 1 hr): ~5%
- stability of clear solutions in NNDMA on storage ([3]; room temperature and 40° C., 6 months): without the formation of turbidity or a precipitate and without significant hydrolysis of aspirin
- salicylic acid (hydrolysis product) in solutions of ASA ([3]; the 17 solvent systems of Table 2, within one hour, aspirin 50-75 mg/ml, pH 1.5 to 6.8): ≥ 5%
- stability in N,N-dimethylacetamide ([3]; up to 500 mg/ml, stored at 40° C. for up to 6 months): without undergoing significant hydrolysis
